Assays:
[1] = test system: F508del-CFTR-YFP-FRT cells; assay: Anionophore anion transport in F508del-CFTR-YFP-FRT cells; assay type: cell-based, Fischer rat; details: for anion transport in control F508del-CFTR-YFP-FRT cells / additivity of anion transport to rescue of F508del-CFTR: 50 μM; for anion transport in control F508del-CFTR-YFP-FRT cells: cells grown at 37 °C; for additivity of anion transport to rescue of F508del-CFTR: 27 °C or lumacaftor rescue; for anion transport when added together with forskolin and ivacaftor: anionophore 50 μM, forskolin 10 μM, ivacaftor 1 μM
Description: To learn whether anionophores are additive to small molecules that rescue disease-causing CFTR variants, we used FRT cells co-expressing F508del-CFTR, the predominant CF mutation and YFP-H148Q/I152L (F508del-CFTR-YFP-FRT cells).[28] To rescue the plasma membrane expression of F508del-CFTR, we used low temperature or the clinically-licensed CFTR corrector lumacaftor,[38],[39] while to increase its activity, we used the clinically-licensed CFTR potentiator ivacaftor.[40]
FRT cells stably expressing the halide sensor YFP-H148Q/I152L6 were generous gifts of AS Verkman (University of California, San Francisco), while CFBE41o- cells7 stably expressing YFP (YFP-CFBE cells) were a generous gift of LJV Galietta (Telethon Institute for Genetics and Medicine). YFP-FRT cells were cultured as described previously for FRT cells8 except that media contained 10% fetal bovine serum, 2 mM L-glutamine and the selection agent G418 (YFP-FRT cells, 0.5 mg ml-1; WT-CFTR-YFP-FRT cells, 0.75 mg ml-1) or zeocin […]
(F508del-CFTR-YFP-FRT cells, 0.5 mg ml-1). […]
U ml-1 penicillin and 100 mg ml-1 streptomycin. All cells were incubated at 37 °C in a humidified atmosphere with 5% CO2.
For fluorescence microplate reader studies, cells were seeded in 96-well plates and grown in culture media at 37 °C in a humidified atmosphere with 5% CO2 for 3 – 4 days until 90% confluent. To promote the plasma membrane expression of F508del-CFTR, prior to study F508del-YFP-FRT cells were either cultured at 27 °C for 24 h or treated with lumacaftor (3 µM) in YFP-FRT media containing 1% fetal bovine serum at 37 °C for 24 h. […]
(§1) Fluorescence plate reader assay […]
(§2) quenching of YFP fluorescence at 37 °C using a microplate reader following the method of Galietta et al..9 The microplate reader (model: FLUORstar Omega; BMG LABTECH Ltd., Aylesbury, UK) was equipped with a syringe pump and excitation (500 ± 10 nm) and emission (535 ± 15 nm) filters (Chroma Technology GmbH, Olching, Germany). After washing cells twice with PBS (composition (mM): 137 NaCl, 2.7 KCl, 8.1 Na2HPO4, 1.5 KH2PO4, 1 CaCl2 and 0.5 MgCl2, pH 7.40), cells were incubated with test anionophores (1 – 50 µM) or the vehicle (DMSO [0.1 – 0.5% v v-1]) in 40 µl of PBS for 10 – 120 minutes according to the experimental design. Other compounds, including forskolin, ivacaftor and channel inhibitors were added to […]
(§3) the PBS bathing cells 10 minutes prior to PBS iodide addition, whereas UTP was added to cells with the PBS iodide solution. Fluorescence was measured for 14 seconds; 2 seconds before and 12 seconds after injection of 110 µl PBS iodide solution (137 mM Cl- replaced by I-) into each well (to obtain a final concentration of I- of 100 mM).
(§4) We expressed cell fluorescence values (F) relative to the fluorescence value immediately before I- injection (F0), excluding the initial decrease, which likely represents the quenching of extracellular YFP released from cells and signal reduction accompanying the increase in solution volume bathing cells. To quantify anion transport by test anionophores, we determined the initial slope of the fluorescence decay following I - addition by fitting first order exponential functions to the last 12 seconds of each fluorescence recording. In each experim ent, n values represent the mean of two replicates and all treatments were tested at least three times using different microplates. […]
(§5) FRT cells was selected and the cells were perfused with (i) PBS for 5 minutes then (ii) PBS containing I- (10 mM) (made by preparing PBS with 127 mM NaCl to maintain osmolarity) for 5 minutes and finally (iii) PBS for 30 minutes to remove thoroughly I- from the perfusion chamber. YFP-FRT cells were repeatedly treated with I- (10 mM) and then washed with PBS […]
(§6) During all interventions, the rate of solution perfusion was 8 – 10 ml min-1; temperature was 37 °C and except for the first 15 minutes of PBS washing, no data were collected between cycles of I- perfusion and PBS […]
For cell fluorescence measurements, we used the Volocity (Improvision) data […]

YFP-CFBE cells = assay: YFP fluorescence plate reader assay of anion transport in YFP-CFBE cells; assay type: cell-based; details: for anion transport in YFP-CFBE cells (in words) / concentration–response relationship in YFP-CFBE compared with YFP-FRT cells: 1–50 μM; for anionophore concentration matching the effect of UTP (1 mM): anion transport equivalent to CaCC activation, YFP-CFBE cells; for effect of CaCC activation on anionophore-mediated anion transport: anionophore 50 μM with UTP 1 mM; for effect of CaCCinh-A01 on transport by anionophore: anionophore 50 μM, CaCCinh-A01 10 μM
Description: To begin to test anionophores in CF airway epithelial cells, we utilised the CF bronchial epithelial cell line CFBE41o^– engineered to express YFP-H148Q/I152L (YFP-CFBE cells).[34],[35] One advantage of using YFP-CFBE cells is that they endogenously express the Ca^2+-activated Cl^– channel (CaCC), unlike YFP-FRT cells.[33] Thus, using YFP-CFBE cells, we directly compared anion transport by anionophores with that of the CaCC, an alternative pathway to restore anion transport in CF.[13]
FRT cells stably expressing the halide sensor YFP-H148Q/I152L6 were generous gifts of AS Verkman (University of California, San Francisco), while CFBE41o- cells7 stably expressing YFP (YFP-CFBE cells) were a generous gift of LJV Galietta (Telethon Institute for Genetics and Medicine). YFP-FRT cells were cultured as described previously for FRT cells8 except that media contained 10% fetal bovine serum, 2 mM L-glutamine and the selection agent G418 (YFP-FRT cells, 0.5 mg ml-1; WT-CFTR-YFP-FRT cells, 0.75 mg ml-1) or zeocin (F508del-CFTR-YFP-FRT cells, 0.5 mg ml-1). YFP-CFBE cells were cultured in minimal essential medium (MEM) supplemented with 10% fetal bovine serum, 2 mM L-glutamine, 100 U ml-1 penicillin and […] streptomycin. All cells were incubated at 37 °C in a humidified atmosphere with 5% CO2.
For fluorescence microplate reader studies, cells were seeded in 96-well plates and grown in culture media at 37 °C in a humidified atmosphere with 5% CO2 for 3 – 4 days until […]
90% confluent. […]
as §1, §2, §3, §4, §5, §6
For cell fluorescence measurements, we used the Volocity (Improvision) data acquisition and analysis system and a cooled CCD camera (Hamamatsu ORCA ER firewall) […]

[2] = set-up: method as in ref [16 and 25], [20], [21], [22], [23], [24], [29] (Reference column); details: 1H NMR titrations with Bu4N^+Cl^– in DMSO-d6/H2O (200 : 1) at 298 K; ref [16 and 25], [20], [21], [22], [23], [24], [29]; cited from earlier work

| SMILES | anion transport in control F508del-CFTR-YFP-FRT cells [1] | additivity of anion transport to rescue of F508del-CFTR [1] | anion transport when added together with forskolin and ivacaftor [1] | effect of increasing incubation period from 10 to 120 minutes on anion transport (YFP-CFBE cells; 10 μM) | effect of increasing incubation period from 10 to 120 minutes on anion transport (YFP-CFBE cells; 50 μM) | anion transport in YFP-CFBE cells (in words) (YFP-CFBE cells) | concentration–response relationship in YFP-CFBE compared with YFP-FRT cells (YFP-CFBE cells) | anionophore concentration matching the effect of UTP (1 mM) (YFP-CFBE cells) | effect of CaCC activation on anionophore-mediated anion transport (YFP-CFBE cells) | effect of CaCCinh-A01 on transport by anionophore (YFP-CFBE cells) | K a to Cl^– in DMSO [2] |
| --- | --- | --- | --- | --- | --- | --- | --- | --- | --- | --- | --- |
| CCOC(=O)[C@]12CC[C@@H](NC(=S)Nc3ccc([N+](=O)[O-])cc3)C[C@@H]1C[C@@H](NC(=S)Nc1ccc([N+](=O)[O-])cc1)CC2 [Compound 12] | mediated anion transport | additive | increased further the amount of anion transport | increased noticeably | dramatic acceleration | mediated anion transport | identical | 1 µM | either without effect or weakly additive | not observed |  |
| CCOC(=O)[C@]12CC[C@@H](NC(=S)Nc3cc(C(F)(F)F)cc(C(F)(F)F)c3)C[C@@H]1C[C@@H](NC(=S)Nc1cc(C(F)(F)F)cc(C(F)(F)F)c1)CC2 [Compound 15] | mediated anion transport | additive | increased further the amount of anion transport |  |  | mediated anion transport | less efficacious | 1 µM | either without effect or weakly additive | not observed | 2.4 × 10^3 M^–1 |
| FC(F)(F)c1ccc(NC(=S)NCCN(CCNC(=S)Nc2ccc(C(F)(F)F)cc2)CCNC(=S)Nc2ccc(C(F)(F)F)cc2)cc1 [Compound 18] |  |  |  |  |  |  |  |  |  |  | 9.6 × 10^2 M^–1 |
| FC(F)(F)c1cc(NC(=S)NCCN(CCNC(=S)Nc2cc(C(F)(F)F)cc(C(F)(F)F)c2)CCNC(=S)Nc2cc(C(F)(F)F)cc(C(F)(F)F)c2)cc(C(F)(F)F)c1 [Compound 19] | mediated anion transport | additive | increased further the amount of anion transport | increased noticeably | increased noticeably | mediated anion transport | similar | 1 µM | strongly additive | direct inhibitory effect | 4.4 × 10^3 M^–1 |

Reference: paper PMC6984391, “Anion carriers as potential treatments for cystic fibrosis: transport in cystic fibrosis cells, and additivity to channel-targeting drugs” (Chemical Science, 2019)
